Experimental data as given in patent US10434083B2, “Transmammary delivery of cyclooxygenase-2 inhibitors for analgesia in neonates” (Iowa State University Research Foundation, Inc., priority 2018, dated 2019).
Read-outs that look alike come from different tables or passages of the source.

Assay: Firocoxib pharmacokinetics in sows following IM administration (Example 2)
Format: in vivo, swine
Details: for AUC(0-t) / AUC(0-inf) / CL/F / Cmax / MRT inf / Tmax / MRT last / Vd/F / half-life: female, Yorkshire×Landrace, plasma; for AUC(0-t) / AUC(0-inf): im; for MRT last: read-out: MRT0-last; for Vd/F: read-out: VZ/F; for half-life: read-out: plasma elimination half-life (T1/2λz), range over dose groups
Method: Protocols involved intramuscular injection of Firocoxib to lactating sows at either 0.5, 1.0, 1.5 or 2 mg/kg, and analysis in sows and select piglets at 21 days post treatment. Pregnant Yorkshire×Landrace sows (mean±SEM bodyweight, 250.3±7.61 kg) that were approximately 1 week before farrowing were sourced from a commercial swine farm. Each sow was examined by a veterinarian to confirm that she was healthy and pregnant. A unique numerical ear tag (Allflex Global Ear Tags, Allflex USA, Inc., DFW Airport, TX) was placed in the right ear of each sow for identification. The sows were housed in a commercial swine operation at MVS (West Point, Nebr.) in accordance with the recommendations in the Guide for the Care and Use of Agricultural Animals in Agricultural Use and Research and Teaching (Guide for the Care and Use of Agricultural Animals in Agricultural Research and Teaching, 2010). Sows were placed in Quad- or Euro-style farrowing stalls (Thorp Equipment, Thorp, Wis.), depending on availability. Regardless of stall type, each sow was housed in a farrowing crate measuring 0.6 m×2.1 m. Quad and Euro crates had piglet creep areas of 7.0 m^2 and 6.4 m^2, respectively. After farrowing, a heat lamp was provided on one side of the creep area for the piglets in each crate. All sows were fed a diet that met or exceeded National Research Council (NRC, 2012) nutrient requirements and water was provided ad libitum. Each litter provided at least six male and three female piglets for sampling with the exception of one sow that had 5 males and 4 females in the litter, and one sow that had 3 males and 6 females in the litter. Piglets were clinically examined and weighed on Study Day 0 prior to dosing. Cross fostering of the litters was permitted. Bodyweights were used to randomly assign sows to 1 of 4 treatment groups (n=4 sows/group) as detailed in Table 3.
A sample size of 4 sows was selected to describe the pharmacokinetics of firocoxib. For the comparison of plasma cortisol concentrations and average daily gain in bodyweight (ADG), a sample size of 36 piglets/treatment group was calculated to provide Statistical Power of 0.8 assuming an alpha of 0.05, sigma of 0.54 and delta of 0.20. At the time of study commencement (T0), sows received a single dose of firocoxib (Equioxx Injection, Merial, Duluth, Ga.) (Lot number 4VP07, Expiration Date November 2017) administered at either 0.5 mg/kg, 1.0 mg/kg, 1.5 mg/kg, or 2.0 mg/kg by IM injection into the right lateral neck using an 18-gauge, 1.5-inch needle attached to a 20-mL syringe (Table 3). In cases where the calculated dose volume exceeded 20-mL, the remaining volume was administered via IM injection in the left lateral neck muscle.
Blood samples for firocoxib determination were collected from the sows and three piglets/litter (two male and one female piglet at each time point) at 0, 2, 4, 6, 8, 12, 24, 48, 72, 96, and 120 h post-drug injection to the sow. The blood sample from each sow (8 mL/sample) was collected via the left or right jugular vein using a 25.4-mm, 16-gauge hypodermic needle (Air-Tite Products, Virginia Beach, Va.) attached to a 12-mL Luer-Lok syringe (TycoHealth Care, Mansfield, Mass.). During blood collection, a pig snare was used for manual restraint of each sow in her crate. The blood samples (2 mL/sample) from the piglets were collected from the left or right cranial vena cava using a 3.8-cm, 20-gauge hypodermic needle (TycoHealth Care, Mansfield, Mass.) attached to a 3-mL syringe (TycoHealth Care, Mansfield, Mass.). Physical restraint of the piglet was achieved by placing the animal in a supine position during sample collection. Blood samples were transferred to 6-mL evacuated tubes that contained lithium heparin (Vacuette plasma tubes, Greiner Bio-One, Monroe, N.C.) that were stored on ice for up to 2 h before processing. The blood samples were centrifuged for 10 min at 1,500×g. The plasma was then removed, placed in cryovials, and frozen at −80° C. until analysis. […]

CC1(C)OC(=O)C(OCC2CC2)=C1c1ccc(S(C)(=O)=O)cc1 [firocoxib]
AUC(0-t) (pig, 0.5 mg/kg, sow dose 0.5 mg/kg (Table 7), read-out: Sow AUClast): 1530 ng·h/mL | AUC(0-inf) (pig, 0.5 mg/kg, sow dose 0.5 mg/kg (Table 7), read-out: Sow AUC∞): 1590 ng·h/mL | AUC(0-t) (pig, 0.5 mg/kg, sows, 0.5 mg/kg IM, mean, read-out: AUC0-24h): 1030 ng·h/mL | AUC(0-t) (pig, 0.5 mg/kg, sows, 0.5 mg/kg IM, mean, read-out: AUC0-last): 1530 ng·h/mL | AUC(0-inf) (pig, 0.5 mg/kg, sows, 0.5 mg/kg IM, mean, read-out: AUCINF): 1590 ng·h/mL | AUC(0-t) (pig, 1 mg/kg, sow dose 1.0 mg/kg (Table 7), read-out: Sow AUClast): 5330 ng·h/mL | AUC(0-inf) (pig, 1 mg/kg, sow dose 1.0 mg/kg (Table 7), read-out: Sow AUC∞): 5620 ng·h/mL | AUC(0-t) (pig, 1 mg/kg, sows, 1.0 mg/kg IM, mean, read-out: AUC0-24h): 2670 ng·h/mL | AUC(0-t) (pig, 1 mg/kg, sows, 1.0 mg/kg IM, mean, read-out: AUC0-last): 5330 ng·h/mL | AUC(0-inf) (pig, 1 mg/kg, sows, 1.0 mg/kg IM, mean, read-out: AUCINF): 5620 ng·h/mL | AUC(0-t) (pig, 1.5 mg/kg, sow dose 1.5 mg/kg (Table 7), read-out: Sow AUClast): 8320 ng·h/mL | AUC(0-inf) (pig, 1.5 mg/kg, sow dose 1.5 mg/kg (Table 7), read-out: Sow AUC∞): 8660 ng·h/mL | AUC(0-t) (pig, 1.5 mg/kg, sows, 1.5 mg/kg IM, mean, read-out: AUC0-24h): 4840 ng·h/mL | AUC(0-t) (pig, 1.5 mg/kg, sows, 1.5 mg/kg IM, mean, read-out: AUC0-last): 8320 ng·h/mL | AUC(0-inf) (pig, 1.5 mg/kg, sows, 1.5 mg/kg IM, mean, read-out: AUCINF): 8660 ng·h/mL | AUC(0-t) (pig, 2 mg/kg, sow dose 2.0 mg/kg (Table 7), read-out: Sow AUClast): 12700 ng·h/mL | AUC(0-inf) (pig, 2 mg/kg, sow dose 2.0 mg/kg (Table 7), read-out: Sow AUC∞): 13700 ng·h/mL | AUC(0-t) (pig, 2 mg/kg, sows, 2.0 mg/kg IM, mean, read-out: AUC0-24h): 6640 ng·h/mL | AUC(0-t) (pig, 2 mg/kg, sows, 2.0 mg/kg IM, mean, read-out: AUC0-last): 12700 ng·h/mL | AUC(0-inf) (pig, 2 mg/kg, sows, 2.0 mg/kg IM, mean, read-out: AUCINF): 13700 ng·h/mL | CL/F (pig, sows, 0.5 mg/kg IM, mean): 5.5 mL/min/kg | Cmax (pig, sows, 0.5 mg/kg IM, mean): 108 ± 15.2 ng/mL | MRT inf (pig, sows, 0.5 mg/kg IM, mean): 29.4 h | Tmax (pig, sows, 0.5 mg/kg IM, mean): 3.5 h | MRT last (pig, sows, 0.5 mg/kg IM, mean): 27.2 h | Vd/F (pig, sows, 0.5 mg/kg IM, mean): 13.8 L/kg | CL/F (pig, sows, 1.0 mg/kg IM, mean): 3.5 mL/min/kg | Cmax (pig, sows, 1.0 mg/kg IM, mean): 158 ± 24.9 ng/mL | MRT inf (pig, sows, 1.0 mg/kg IM, mean): 34.8 h | Tmax (pig, sows, 1.0 mg/kg IM, mean): 5.5 h | MRT last (pig, sows, 1.0 mg/kg IM, mean): 29.4 h | Vd/F (pig, sows, 1.0 mg/kg IM, mean): 7.82 L/kg | CL/F (pig, sows, 1.5 mg/kg IM, mean): 3.17 mL/min/kg | Cmax (pig, sows, 1.5 mg/kg IM, mean): 344 ± 78.9 ng/mL | MRT inf (pig, sows, 1.5 mg/kg IM, mean): 33.5 h | Tmax (pig, sows, 1.5 mg/kg IM, mean): 3 h | MRT last (pig, sows, 1.5 mg/kg IM, mean): 26.4 h | Vd/F (pig, sows, 1.5 mg/kg IM, mean): 9.12 L/kg | CL/F (pig, sows, 2.0 mg/kg IM, mean): 3 mL/min/kg | Cmax (pig, sows, 2.0 mg/kg IM, mean): 453 ± 90.3 ng/mL | MRT inf (pig, sows, 2.0 mg/kg IM, mean): 36.8 h | Tmax (pig, sows, 2.0 mg/kg IM, mean): 4.5 h | MRT last (pig, sows, 2.0 mg/kg IM, mean): 29.1 h | Vd/F (pig, sows, 2.0 mg/kg IM, mean): 7.75 L/kg | half-life (pig, sows, 0.5-2.0 mg/kg IM): 26.7 to 31.1 h | half-life (swine, sows, 0.5-2.0 mg/kg IM): 26.7 to 31.1 h | AUC_Exp (sows, 0.5 mg/kg IM, mean): 3.39% | AUMC (sows, 0.5 mg/kg IM, mean): 31765 h^2 × ng/mL | T1/2λZ (sows, 0.5 mg/kg IM, mean): 28.87 h | λZ (sows, 0.5 mg/kg IM, mean): 0.03 h⁻¹ | AUC_Exp (sows, 1.0 mg/kg IM, mean): 4.15% | AUMC (sows, 1.0 mg/kg IM, mean): 164892 h^2 × ng/mL | T1/2λZ (sows, 1.0 mg/kg IM, mean): 26.70 h | λZ (sows, 1.0 mg/kg IM, mean): 0.03 h⁻¹ | AUC_Exp (sows, 1.5 mg/kg IM, mean): 4.98% | AUMC (sows, 1.5 mg/kg IM, mean): 215365 h^2 × ng/mL | T1/2λZ (sows, 1.5 mg/kg IM, mean): 29.89 h | λZ (sows, 1.5 mg/kg IM, mean): 0.02 h⁻¹ | AUC_Exp (sows, 2.0 mg/kg IM, mean): 5.61% | AUMC (sows, 2.0 mg/kg IM, mean): 392753 h^2 × ng/mL | T1/2λZ (sows, 2.0 mg/kg IM, mean): 31.09 h | λZ (sows, 2.0 mg/kg IM, mean): 0.02 h⁻¹ | volume of distribution, range over dose groups (sows, 0.5-2.0 mg/kg IM): 7.75 to 13.8 L/kg | volume of distribution in sows, fold larger than flunixin (vs flunixin (0.30 L/kg) in pigs): approximately 26 fold | elimination half-life in sows, fold longer than flunixin (vs flunixin (7.5 h) in pigs): ~4 fold | volume of distribution in sows, fold greater than ketoprofen (vs ketoprofen (0.35 L/kg) in pigs): ~22 fold | elimination half-life in sows, fold longer than ketoprofen (vs ketoprofen (3 h) in pigs): approximately 10 fold | volume of distribution in sows, fold greater than meloxicam (vs meloxicam (0.42 L/kg) in pigs): ~18 fold | elimination half-life in sows, fold longer than meloxicam (vs meloxicam (6 h) in pigs): ~5 fold
